Reference: ChEMBL document CHEMBL5331117, “X-Ray Conformation and Structure-Activity Relationships of MA026, a Reversible Tight Junction Opener” (J Med Chem, 2023)

Test system: MDCK-II
Test: Induction of claudin-1 mediated tight junction opening in MDCK-II cells assessed as increase in FITC-conjugated dextran incubated for 5 hrs relative to control
Assay type: cell-based
Set-up: concentration or dose not given beside the values
Settings: Canis lupus familiaris

Compound | Activity
CCCCCCCCCC(=O)N[C@@H](CC(C)C)C(=O)N[C@H](CCC(=O)O)C(=O)N[C@H](CCC(N)=O)C(=O)N[C@@H](C(=O)N[C@H](CC(C)C)C(=O)N[C@@H](CCC(N)=O)C(=O)N[C@H]1COC(=O)[C@H]([C@@H](C)CC)NC(=O)[C@@H](CCC(N)=O)NC(=O)[C@H](CC(C)C)NC(=O)[C@H](CC(C)C)NC(=O)[C@@H](CCC(N)=O)NC(=O)[C@@H](CC(C)C)NC(=O)[C@@H](C(C)C)NC1=O)C(C)C | 2.3%
CCCCCCCCCC(=O)N[C@@H](CC(C)C)C(=O)N[C@H](CCC(=O)O)C(=O)N[C@H](CCC(N)=O)C(=O)N[C@@H](C(=O)N[C@H](CC(C)C)C(=O)N[C@@H](CCC(N)=O)C(=O)N[C@@H]1COC(=O)[C@H]([C@@H](C)CC)NC(=O)[C@@H](CCC(N)=O)NC(=O)[C@H](CC(C)C)NC(=O)[C@H](CC(C)C)NC(=O)[C@@H](CCC(N)=O)NC(=O)[C@H](CC(C)C)NC(=O)[C@@H](C(C)C)NC1=O)C(C)C | 3.8%
CCCCCCC[C@@H](O)CC(=O)N[C@@H](CC(C)C)C(=O)N[C@H](CCC(=O)O)C(=O)N[C@H](CCC(N)=O)C(=O)N[C@@H](C(=O)N[C@H](CC(C)C)C(=O)N[C@@H](CCC(N)=O)C(=O)N[C@@H]1COC(=O)[C@H]([C@@H](C)CC)NC(=O)[C@@H](CCC(N)=O)NC(=O)[C@H](CC(C)C)NC(=O)[C@H](CC(C)C)NC(=O)[C@@H](CCC(N)=O)NC(=O)[C@@H](CC(C)C)NC(=O)[C@@H](C)NC1=O)C(C)C | 22.3%
CCCCCCCCCC(=O)N[C@@H](CC(C)C)C(=O)N[C@H](CCC(=O)O)C(=O)N[C@H](CCC(N)=O)C(=O)N[C@@H](C(=O)N[C@H](CC(C)C)C(=O)N[C@@H](CCC(N)=O)C(=O)N[C@@H]1COC(=O)[C@@H]([C@@H](C)CC)NC(=O)[C@@H](CCC(N)=O)NC(=O)[C@H](CC(C)C)NC(=O)[C@H](CC(C)C)NC(=O)[C@@H](CCC(N)=O)NC(=O)[C@@H](CC(C)C)NC(=O)[C@@H](C(C)C)NC1=O)C(C)C | 18.3%
CCCCCCC[C@@H](O)CC(=O)N[C@@H](C)C(=O)N[C@H](CCC(=O)O)C(=O)N[C@H](CCC(N)=O)C(=O)N[C@@H](C(=O)N[C@H](CC(C)C)C(=O)N[C@@H](CCC(N)=O)C(=O)N[C@@H]1COC(=O)[C@H]([C@@H](C)CC)NC(=O)[C@@H](CCC(N)=O)NC(=O)[C@H](CC(C)C)NC(=O)[C@H](CC(C)C)NC(=O)[C@@H](CCC(N)=O)NC(=O)[C@@H](CC(C)C)NC(=O)[C@@H](C(C)C)NC1=O)C(C)C | 31.8%
CC[C@H](C)[C@@H]1NC(=O)[C@@H](CCC(N)=O)NC(=O)[C@H](CC(C)C)NC(=O)[C@H](CC(C)C)NC(=O)[C@@H](CCC(N)=O)NC(=O)[C@@H](CC(C)C)NC(=O)[C@@H](C(C)C)NC(=O)[C@H](NC(=O)[C@H](CCC(N)=O)NC(=O)[C@@H](CC(C)C)NC(=O)[C@H](NC(=O)[C@@H](CCC(N)=O)NC(=O)[C@@H](CCC(=O)O)NC(=O)[C@H](CC(C)C)NC(=O)CCO)C(C)C)COC1=O | -3%
CCCCCCCCCC(=O)N[C@@H](CC(C)C)C(=O)N[C@H](CCC(=O)O)C(=O)N[C@H](CCC(N)=O)C(=O)N[C@H](C(=O)N[C@H](CC(C)C)C(=O)N[C@@H](CCC(N)=O)C(=O)N[C@@H]1COC(=O)[C@H]([C@@H](C)CC)NC(=O)[C@@H](CCC(N)=O)NC(=O)[C@H](CC(C)C)NC(=O)[C@H](CC(C)C)NC(=O)[C@@H](CCC(N)=O)NC(=O)[C@@H](CC(C)C)NC(=O)[C@@H](C(C)C)NC1=O)C(C)C | 8.6%
CCCCCCC[C@@H](O)CC(=O)N[C@@H](CC(C)C)C(=O)N[C@H](CCC(=O)O)C(=O)N[C@H](CCC(N)=O)C(=O)N[C@H](C)C(=O)N[C@H](CC(C)C)C(=O)N[C@@H](CCC(N)=O)C(=O)N[C@@H]1COC(=O)[C@H]([C@@H](C)CC)NC(=O)[C@@H](CCC(N)=O)NC(=O)[C@H](CC(C)C)NC(=O)[C@H](CC(C)C)NC(=O)[C@@H](CCC(N)=O)NC(=O)[C@@H](CC(C)C)NC(=O)[C@@H](C(C)C)NC1=O | 14.4%
CCCCCCC[C@@H](O)CC(=O)N[C@@H](CC(C)C)C(=O)N[C@H](CCC(=O)O)C(=O)N[C@H](CCC(N)=O)C(=O)N[C@@H](C(=O)N[C@H](CC(C)C)C(=O)N[C@@H](CCC(N)=O)C(=O)N[C@@H]1COC(=O)[C@H](C)NC(=O)[C@@H](CCC(N)=O)NC(=O)[C@H](CC(C)C)NC(=O)[C@H](CC(C)C)NC(=O)[C@@H](CCC(N)=O)NC(=O)[C@@H](CC(C)C)NC(=O)[C@@H](C(C)C)NC1=O)C(C)C | 0.2%
CCCCCCC(=O)N[C@@H](CC(C)C)C(=O)N[C@H](CCC(=O)O)C(=O)N[C@H](CCC(N)=O)C(=O)N[C@@H](C(=O)N[C@H](CC(C)C)C(=O)N[C@@H](CCC(N)=O)C(=O)N[C@@H]1COC(=O)[C@H]([C@@H](C)CC)NC(=O)[C@@H](CCC(N)=O)NC(=O)[C@H](CC(C)C)NC(=O)[C@H](CC(C)C)NC(=O)[C@@H](CCC(N)=O)NC(=O)[C@@H](CC(C)C)NC(=O)[C@@H](C(C)C)NC1=O)C(C)C | -2.8%
CCCCCCCCCC(=O)N[C@@H](CC(C)C)C(=O)N[C@H](CCC(=O)O)C(=O)N[C@H](CCC(N)=O)C(=O)N[C@@H](C(=O)N[C@H](CC(C)C)C(=O)N[C@@H](CCC(N)=O)C(=O)N[C@@H]1COC(=O)[C@H]([C@@H](C)CC)NC(=O)[C@@H](CCC(N)=O)NC(=O)[C@H](CC(C)C)NC(=O)[C@H](CC(C)C)NC(=O)[C@@H](CCC(N)=O)NC(=O)[C@@H](CC(C)C)NC(=O)[C@H](C(C)C)NC1=O)C(C)C | 0.4%
CCCCCCCCCC(=O)N[C@@H](CC(C)C)C(=O)N[C@H](CCC(=O)O)C(=O)N[C@H](CCC(N)=O)C(=O)N[C@@H](C(=O)N[C@H](CC(C)C)C(=O)N[C@@H](CCC(N)=O)C(=O)N[C@@H]1COC(=O)[C@H]([C@@H](C)CC)NC(=O)[C@@H](CCC(N)=O)NC(=O)[C@H](CC(C)C)NC(=O)[C@@H](CC(C)C)NC(=O)[C@@H](CCC(N)=O)NC(=O)[C@@H](CC(C)C)NC(=O)[C@@H](C(C)C)NC1=O)C(C)C | -2%

Same assay, conditions: Canis lupus familiaris, filed as opener

Compound | Activity
CCCCCCCCCC(=O)N[C@@H](CC(C)C)C(=O)N[C@@H](CCC(=O)O)C(=O)N[C@H](CCC(N)=O)C(=O)N[C@@H](C(=O)N[C@H](CC(C)C)C(=O)N[C@@H](CCC(N)=O)C(=O)N[C@@H]1COC(=O)[C@H]([C@@H](C)CC)NC(=O)[C@@H](CCC(N)=O)NC(=O)[C@H](CC(C)C)NC(=O)[C@H](CC(C)C)NC(=O)[C@@H](CCC(N)=O)NC(=O)[C@@H](CC(C)C)NC(=O)[C@@H](C(C)C)NC1=O)C(C)C | 85.4%
CCCCCCC[C@@H](O)CC(=O)N[C@@H](CC(C)C)C(=O)N[C@H](CCC(=O)O)C(=O)N[C@H](CCC(N)=O)C(=O)N[C@@H](C(=O)N[C@H](CC(C)C)C(=O)N[C@@H](CCC(N)=O)C(=O)N[C@@H]1COC(=O)[C@H]([C@@H](C)CC)NC(=O)[C@@H](CCC(N)=O)NC(=O)[C@H](CC(C)C)NC(=O)[C@H](CC(C)C)NC(=O)[C@@H](C)NC(=O)[C@@H](CC(C)C)NC(=O)[C@@H](C(C)C)NC1=O)C(C)C | 85.3%
